Source: patent US12411143B2, “CD146 and uses thereof as a biomarker and as a therapeutic target in the diagnosis and treatment of fibrosis” (ASSISTANCE PUBLIQUE HÔPITAUX DE MARSEILLE, priority 2018, dated 2025)

Assays:
ECFC [1] = assay: Soluble CD146 secretion in ECFC (ELISA); format: cell-based, human; conditions: for sCD146 secretion with proteinase inhibitors: IF 50 μM, TIMPs 1 μg/ml; for secretion of soluble CD146 in response to stimuli: 24 h, 20 ng/ml TNF, 20 ng/ml VEGF, 5 ng/ml TGFb, 50 ng/ml netrin, 50 ng/ml Wnt5a
Protocol: A: Secretion of soluble CD146 (CD146s) was determined in ECFC in response to 24 h of treatment with 20 ng/ml TNF, 20 ng/ml VEGF, 5 ng/ml TGFb, 50 ng/ml netrin, 50 ng/ml Wnt5a and 50 ng/ml Wnt3a.
B: The effect of the pan-inhibitor GM6001 was tested on CD146s secretion in ECFC cells by ELISA. Experiments were performed in control conditions and after treatment with 20 ng/ml TNF for 24 h. […] A dose-dependence of GM6001 effect was performed between 1 and 50 μM. Results are the mean values+/−SEM of 5 experiments.
C: The effect of furin convertase inhibitor (IF) was tested at 50 μMon CD146s secretion in control condition and after treatment with TNF 20 ng/ml for 24 h. Results are the mean values+/−SEM of 3 experiments.
D: Effect of TIMP-1, -2 and -3 (1 μg/ml) was tested on CD146s secretion in control condition and after treatment with 20 ng/ml TNF. Results are the mean values+/−SEM of 3 experiments. *: P<0.05, **: P<0.01, ***: P<0.001, experimental vs Control
A: ECFC were transfected with siRNA targeting the short (shCD146) or the long (IgCD146) isoforms of CD146 and with a control siRNA (C). Soluble CD146 (sCD146) secretion was determined. Results are the mean values+/−SEM of 4 different experiments.
B: ECFC were transfected with siRNA targeting MT1-MMP, MMP2, ADAM10 or Tace and with a control siRNA (C). Soluble CD146 (sCD146) secretion was determined. In one condition, cells were treated with GM6001 10 μM. Results are the mean values+/−SEM of 5 different experiments.
A: ECFC were transfected with siRNA targeting the short (shCD146) or the long (IgCD146) isoforms of CD146 and with a control siRNA (C) and soluble CD146 (sCD146) secretion was determined in basal condition and in cells treated for 24 h with TNF 20 ng/ml. Results are the mean values +/−SEM of 5 different experiments.
B: ECFC treated for 24 h with 20 ng/ml TNF were transfected with siRNA targeting Tace, ADAM10, MT1-MMP and with a control siRNA (C) and soluble CD146 (sCD146) secretion was determined. Results are the mean values +/−SEM of 3 different experiments.
Endothelial Colony Forming Cells (ECFC) were cultured in endothelial EGM-2 MV medium as previously described (Delorme B et al., 2005).
SiRNA designed to silence the different isoforms of sCD146 were generated. A control siRNA was also used in each experiment. siRNAs were introduced in endothelial cells using the Silence magmagnetofection kit as described by the manufacturer (OZ Biosciences).
Shed sCD146 was assayed using the commercial ELISA assay (CY-QUANT sCD146, Biocytex, Marseille). Plates were coated with specific mouse monoclonal anti-human CD146 F(ab′)2 fragments. 10 μL of sera was added to each well and incubated for 30 minutes at room temperature. After incubation, the plates were washed five times, followed by incubation with a specific HRP-coupled monoclonal antibody (7A4-HRP, 1 mg/ml, Biocytex, Marseille, France) at a 1:1 000 dilution in a specific diluent for 30 minutes at room temperature and then washed five times. 200 μL of tetramethylbenzidine (TMB) substrate was incubated for approximately 20 minutes at room temperature. The colorimetric reaction was then stopped by the addition of 100 μL of an acid solution. The intensity of the signal was directly related to the concentration of sCD146 initially contained in the sample. For detecting the two spliced isoforms of sCD146 (I5-13-sCD146 and I10-sCD146), the same immunoassay was used (Biocytex). The protocol was modified only for the second antibody (detection antibody) that was replaced by the anti-I5-13-sCD146 or anti-I10-sCD146 antibodies coupled to HRP.

ECFC [2] = assay: mRNA expression of sCD146 isoforms in ECFC (qPCR); format: cell-based, human; conditions: ECFC; 24 h treatment (WNT5a 15 min, WNT3a 1 h)
Protocol: C: The mRNA expression of I10-sCD146 and I5-13-sCD146 isoforms was analyzed by qPCR in ECFC after treatment of the cells for 24 h with the recombinant shed soluble CD146 50 ng/ml, VEGF 20 ng/ml, TNF 20 ng/ml, TGF beta 5 ng/ml, and netrin 50 ng/ml. Cells were also treated for 15 min with WNT5a 200 ng/ml and 1 h with WNT3a 50 ng/ml. Results are the mean values +/−SEM of 3 experiments. *: P<0.05, experimental vs Control.
Total cellular RNA was isolated from cells, reverse transcribed into cDNA and the resulting cDNA was subjected to qPCR.

[3] = control condition and TNF 20 ng/ml 24 h

## TIMP-1: TIMP used to inhibit sCD146 secretion
ECFC [1]; [3]
  sCD146 secretion with proteinase inhibitors: able to reduce sCD146 secretion in both conditions

## TGFb: stimulus of endothelial cells, 5 ng/ml [reference compound]
ECFC [1]
  secretion of soluble CD146 in response to stimuli: increased
ECFC [2]
  I5-13-sCD146 mRNA level: not modified

## shCD146 siRNA: siRNA targeting the short isoform of CD146; sens 5′CAGGAGAUGGAGAGAAAUACAUCGA (antisense UCGAUGUAUUUCUCUCCAUCUCCUG; chemistry not given here)
ECFC [1]; 24 h TNF 20 ng/ml
  reduction of sCD146 secretion by siRNA: ~25%
ECFC [1]; control condition
  effect of siRNA on sCD146 secretion: no effect

## CNC(=O)[C@H](Cc1c[nH]c2ccccc12)NC(=O)[C@@H](CC(=O)NO)CC(C)C [GM6001]
ECFC [1]; control condition and TNF 20 ng/ml 24 h, GM6001 1-50 μM
  GM6001-dependent part of total sCD146 secretion: around 75%

B1: TIMP-3: TIMP used to inhibit sCD146 secretion (protein, UniProt P35625 24-211, looked up)
Metalloproteinase inhibitor 3: CTCSPSHPQDAFCNSDIVIRAKVVGKKLVKEGPFGTLVYTIKQMKMYRGFTKMPHVQYIHTEASESLCGLKLEVNKYQYLLTGRVYDGKMYTGLCNFVERWDQLTLSQRKGLNYRYHLGCNCKIKSCYYLPCFVTSKNECLWTDMLSNFGYPGYQSKHYACIRQKGGYCSWYRGWAPPDKSIINATDP
ECFC [1]; [3]
  sCD146 secretion with proteinase inhibitors: able to reduce sCD146 secretion only when the cells were treated with TNF

B2: Wnt3a: stimulus of endothelial cells (protein, UniProt P56704 19-352, looked up)
Protein Wnt-3a: SYPIWWSLAVGPQYSSLGSQPILCASIPGLVPKQLRFCRNYVEIMPSVAEGIKIGIQECQHQFRGRRWNCTTVHDSLAIFGPVLDKATRESAFVHAIASAGVAFAVTRSCAEGTAAICGCSSRHQGSPGKGWKWGGCSEDIEFGGMVSREFADARENRPDARSAMNRHNNEAGRQAIASHMHLKCKCHGLSGSCEVKTCWWSQPDFRAIGDFLKDKYDSASEMVVEKHRESRGWVETLRPRYTYFKVPTERDLVYYEASPNFCEPNPETGSFGTRDRTCNVSSHGIDGCDLLCCGRGHNARAERRREKCRCVFHWCCYVSCQECTRVYDVHTCK
ECFC [2]
  I5-13-sCD146 mRNA level: not modified
  I10-sCD146 mRNA level: down-regulated

B3: Wnt5a: stimulus of endothelial cells (protein, UniProt P41221 62-380, looked up)
Protein Wnt-5a: IIGAQPLCSQLAGLSQGQKKLCHLYQDHMQYIGEGAKTGIKECQYQFRHRRWNCSTVDNTSVFGRVMQIGSRETAFTYAVSAAGVVNAMSRACREGELSTCGCSRAARPKDLPRDWLWGGCGDNIDYGYRFAKEFVDARERERIHAKGSYESARILMNLHNNEAGRRTVYNLADVACKCHGVSGSCSLKTCWLQLADFRKVGDALKEKYDSAAAMRLNSRGKLVQVNSRFNSPTTQDLVYIDPSPDYCVRNESTGSLGTQGRLCNKTSEGMDGCELMCCGRGYDQFKTVQTERCHCKFHWCCYVKCKKCTEIVDQFVCK
ECFC [1]
  secretion of soluble CD146 in response to stimuli: increased
ECFC [2]
  I5-13-sCD146 mRNA level: up-regulated
